Test results as given in US10227360B2, “Compounds for use as GPR120 agonists” (PIRAMAL ENTERPRISES LIMITED, priority 2014, dated 2019).

Biological target: GPR120L receptor (Homo sapiens (Human), UniProt Q5NUL3)
Assay: Beta (β) arrestin 2 Interaction Assay (BRET assay), β-galactosidase enzyme fragment complementation
Format: cell-based
Details: CHO-K1 cells stably expressing the GPR120L receptor; β-arrestin recruitment; 2 hours incubation
Experimental: Beta (β) arrestin 2 Interaction Assay (BRET assay) was performed using CHO-K1 cells stably expressing the GPR120L receptor using β-galactosidase (Beta gal) enzyme fragment complementation assay. The measurement of GPR120 activation upon agonist activation was directly provided by β-arrestin recruitment. One day before the β-arrestin 2 assay, CHO-K1 cells were seeded and incubated overnight at 37° C. in a 5% CO2 humidified atmosphere. Cells were treated with the test compounds in the various concentrations ranging from 30 μM to 1 nM and incubated for 2 hours for GPCR (GPR120) activation. Extent of Arrestin recruitment was measured by adding detection reagents for Beta gal complementation assay and was further incubated for 1 hour. The chemi-luminescent signal was detected on Polar Star (BMG Labtech). The dose-response curve was analyzed using Sigma Plot/Graph Pad. The EC50 (concentration of the test compounds where 50% of compounds' maximal activity is observed) values were calculated from the dose-response curve.

Sequence of GPR120L receptor (Q5NUL3 other isoform, or with tags, fused parts or gaps): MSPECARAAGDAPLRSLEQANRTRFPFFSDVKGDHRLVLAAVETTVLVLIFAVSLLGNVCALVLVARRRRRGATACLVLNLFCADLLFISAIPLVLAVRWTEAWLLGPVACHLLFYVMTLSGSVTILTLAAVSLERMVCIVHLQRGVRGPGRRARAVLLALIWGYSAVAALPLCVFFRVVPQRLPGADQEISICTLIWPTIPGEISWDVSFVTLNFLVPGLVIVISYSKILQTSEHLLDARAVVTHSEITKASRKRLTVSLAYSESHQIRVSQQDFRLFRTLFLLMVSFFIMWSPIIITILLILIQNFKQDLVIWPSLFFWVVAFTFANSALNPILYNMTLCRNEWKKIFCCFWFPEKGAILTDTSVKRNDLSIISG

| SMILES | EC50 |
| --- | --- |
| N#CC1(c2ccc(-c3ccc(F)cc3COc3ccc(CCC(=O)O)nc3)cc2)CC1 [Example 18, 3-(5-((4′-(1-Cyanocyclopropyl)-4-fluoro-[1,1′-biphenyl]-2-yl)methoxy)pyridin-2-yl)propanoic acid] | 10 to 500 nM |
| O=C(O)CCCc1ccc(OCc2cc(F)ccc2-c2ccc3c(c2)CCC=C3)cc1 [Example 35, 4-(4-((2-(7,8-Dihydronaphthalen-2-yl)-5-fluorobenzyl)oxy)phenyl)butanoic acid] | 10 to 500 nM |
| O=C(O)CCCc1ccc(OCc2cc(F)ccc2-c2ccc(C3CC3)nc2)cc1 [Example 30, 4-(4-((2-(6-Cyclopropylpyridin-3-yl)-5-fluorobenzyl)oxy)phenyl)butanoic acid] | 10 to 500 nM |
| C=C1CCCc2nc(-c3ccc(F)cc3COc3ccc(CCCC(=O)O)cc3)sc21 [Example 25, 4-(4-((5-Fluoro-2-(7-methylene-4,5,6,7-tetrahydrobenzo[d]thiazol-2-yl)benzyl)oxy)phenyl)butanoic acid] | 500 to 5000 nM |
| O=C(O)CCc1ccc(OCc2cc(F)ccc2-c2ccc3c(c2)CC3)cn1 [Example 20, 3-(5-((2-(Bicyclo[4.2.0]octa-1(6),2,4-trien-3-yl)-5-fluorobenzyl)oxy)pyridin-2-yl)propanoic acid] | 500 to 5000 nM |
| N#CC1(c2ccc(-c3ccc(F)cc3COc3ccc(CCCC(=O)O)cc3)s2)CC1 [Example 1, 4-(4-((2-(5-(1-Cyanocyclopropyl)thiophen-2-yl)-5-fluorobenzyl)oxy)phenyl)butanoic acid] | 10 to 500 nM |

Next, values leading:

| EC50 | SMILES |
| --- | --- |
| 5000 to 50000 nM | COC1(C)CCCc2cc(-c3ccc(F)cc3COc3ccc(CCCC(=O)O)cc3)ccc21 (centres unmarked) [Example 39, 4-(4-((5-Fluoro-2-(5-methoxy-5-methyl-5,6,7,8-tetrahydronaphthalen-2-yl)benzyl)oxy)phenyl)butanoic acid] |
| 10 to 500 nM | O=C(O)CCCc1ccc(OCc2cc(F)ccc2-c2ccc3c(c2)CC3)cc1 [Example 10, 4-(4-((2-(Bicyclo[4.2.0]octa-1(6),2,4-trien-3-yl)-5-fluorobenzyl)oxy)phenyl)butanoic acid] |
| 10 to 500 nM | O=C(O)CCCc1ccc(OCc2ccccc2-c2ccc3c(c2)CCC3)cc1 [Example 33, 4-(4-((2-(2,3-Dihydro-1H-inden-5-yl)benzyl)oxy)phenyl)butanoic acid] |
| 10 to 500 nM | O=C(O)CCCc1ccc(OCc2cc(F)ccc2-c2nc3c(s2)CCCC3)cc1 [Example 46, 4-(4-((5-Fluoro-2-(4,5,6,7-tetrahydrobenzo[d]thiazol-2-yl)benzyl)oxy)phenyl)butanoic acid] |
| 5000 to 50000 nM | O=C(O)CCCc1ccc(OCc2cc(F)ccc2-c2ccc(C3(F)CC3)s2)cc1 [Example 42, 4-(4-((5-Fluoro-2-(5-(1-fluorocyclopropyl)thiophen-2-yl)benzyl)oxy)phenyl)butanoic acid] |
